Here are results for 1 compound from PMC5218480 (PLoS ONE, 2017).

For this experiment, the system named is MV-4-11 cells. Kind of experiment: Gene expression microarray analysis (Affymetrix PrimeView) and GSEA. The format is cell-based, human. Details: RFU PODN (11730768_x_at) / Fold change /veh PODN (11730768_x_at) / RFU LINC00158 (11744669_a_at) / Fold change /veh LINC00158 (11744669_a_at) / RFU DUSP10 (11751237_a_at) / Fold change /veh DUSP10 (11751237_a_at) / RFU ID3 (11757404_x_at) / Fold change /veh ID3 (11757404_x_at) / RFU PLEKHG5 (11737974_s_at) / Fold change /veh PLEKHG5 (11737974_s_at) / RFU LRRC4B (11730491_at) / Fold change /veh LRRC4B (11730491_at) / RFU GIMAP4 (11747438_a_at) / Fold change /veh GIMAP4 (11747438_a_at) / RFU KRT8 (11758183_x_at) / Fold change /veh KRT8 (11758183_x_at) / RFU CNN1 (11734310_a_at) / Fold change /veh CNN1 (11734310_a_at) / RFU VPS37D (11726825_at) / Fold change /veh VPS37D (11726825_at) / RFU C10orf10 (11716522_x_at) / Fold change /veh C10orf10 (11716522_x_at) / RFU KIR2DL2 /// KIR2DL4 /// KIR2DL5A /// KIR2DL5B /// KIR2DS1 /// KIR2DS2 /// KIR2DS3 /// KIR2DS4 /// KIR3DL3 /// KIR3DL3 /// KIR3DS1 (11738374_at) / Fold change /veh KIR2DL2 /// KIR2DL4 /// KIR2DL5A /// KIR2DL5B /// KIR2DS1 /// KIR2DS2 /// KIR2DS3 /// KIR2DS4 /// KIR3DL3 /// KIR3DL3 /// KIR3DS1 (11738374_at) / RFU C1QL1 (11718748_at) / Fold change /veh C1QL1 (11718748_at) / RFU TMPRSS4 (11747572_a_at) / Fold change /veh TMPRSS4 (11747572_a_at) / RFU HAMP (11756126_x_at) / Fold change /veh HAMP (11756126_x_at) / RFU RNFT2 (11725882_a_at) / Fold change /veh RNFT2 (11725882_a_at) / RFU NR4A2 (11747474_a_at) / Fold change /veh NR4A2 (11747474_a_at) / RFU ABCC12 (11746883_a_at) / Fold change /veh ABCC12 (11746883_a_at) / RFU TMEM136 (11760407_x_at) / Fold change /veh TMEM136 (11760407_x_at) / RFU CLDN22 /// WWC2 (11732394_at) / Fold change /veh CLDN22 /// WWC2 (11732394_at) / RFU HLA-DPB1 (11760878_x_at) / Fold change /veh HLA-DPB1 (11760878_x_at) / RFU SPINT1 (11716480_a_at) / Fold change /veh SPINT1 (11716480_a_at) / RFU GAP43 (11754022_s_at) / Fold change /veh GAP43 (11754022_s_at) / RFU A4GNT (11735810_at) / Fold change /veh A4GNT (11735810_at) / RFU PRB3 (11715151_x_at) / Fold change /veh PRB3 (11715151_x_at) / RFU TUBB4B (11761932_at) / Fold change /veh TUBB4B (11761932_at) / RFU CAPN14 (11732068_a_at) / Fold change /veh CAPN14 (11732068_a_at) / RFU TMCC2 (11721928_a_at) / Fold change /veh TMCC2 (11721928_a_at) / RFU IRGQ (11745062_a_at) / Fold change /veh IRGQ (11745062_a_at) / RFU FAM174B (11720279_a_at) / Fold change /veh FAM174B (11720279_a_at) / RFU TMPRSS4 (11748680_a_at) / Fold change /veh TMPRSS4 (11748680_a_at) / RFU FAM212B (11763350_a_at) / Fold change /veh FAM212B (11763350_a_at) / RFU PLEKHG5 (11743358_a_at) / Fold change /veh PLEKHG5 (11743358_a_at) / RFU ZSCAN30 (11745921_a_at) / Fold change /veh ZSCAN30 (11745921_a_at) / RFU CMKLR1 (11741424_a_at) / Fold change /veh CMKLR1 (11741424_a_at) / RFU LOC101060620 /// MAPK8IP1 (11723275_at) / Fold change /veh LOC101060620 /// MAPK8IP1 (11723275_at) / RFU SPTSSB (11747773_x_at) / Fold change /veh SPTSSB (11747773_x_at) / RFU PRSS12 (11739890_at) / Fold change /veh PRSS12 (11739890_at) / RFU BIN1 (11741810_x_at) / Fold change /veh BIN1 (11741810_x_at) / RFU WNT11 (11732464_a_at) / Fold change /veh WNT11 (11732464_a_at) / RFU C10orf10 (11716521_a_at) / Fold change /veh C10orf10 (11716521_a_at) / RFU C5orf56 (11738089_at) / Fold change /veh C5orf56 (11738089_at) / RFU CYB561 (11721691_x_at) / Fold change /veh CYB561 (11721691_x_at) / RFU ANKRD19P (11752326_a_at) / Fold change /veh ANKRD19P (11752326_a_at) / RFU OR2T12 /// OR2T33 /// OR2T8 (11738714_s_at) / Fold change /veh OR2T12 /// OR2T33 /// OR2T8 (11738714_s_at) / RFU VCAN (11748164_a_at) / Fold change /veh VCAN (11748164_a_at) / RFU JSRP1 (11732532_at) / Fold change /veh JSRP1 (11732532_at) / RFU KRTAP10-11 (11738290_x_at) / Fold change /veh KRTAP10-11 (11738290_x_at) / RFU MYO3A (11730013_a_at) / Fold change /veh MYO3A (11730013_a_at) / RFU EBF3 (11725865_a_at) / Fold change /veh EBF3 (11725865_a_at) / RFU CAMK2N1 (11719241_x_at) / Fold change /veh CAMK2N1 (11719241_x_at) / RFU C5orf56 (11738088_a_at) / Fold change /veh C5orf56 (11738088_a_at) / RFU OLFML3 (11715873_a_at) / Fold change /veh OLFML3 (11715873_a_at) / RFU LOC100653217 /// NTM (11731650_a_at) / Fold change /veh LOC100653217 /// NTM (11731650_a_at) / RFU MAPK11 (11762145_a_at) / Fold change /veh MAPK11 (11762145_a_at) / RFU FIZ1 (11724087_x_at) / Fold change /veh FIZ1 (11724087_x_at) / RFU OASL (11726364_x_at) / Fold change /veh OASL (11726364_x_at) / RFU SOX15 (11748057_x_at) / Fold change /veh SOX15 (11748057_x_at) / RFU CD79A (11719716_a_at) / Fold change /veh CD79A (11719716_a_at) / RFU HIST1H1D (11736915_at) / Fold change /veh HIST1H1D (11736915_at) / RFU CASKIN2 (11723855_a_at) / Fold change /veh CASKIN2 (11723855_a_at) / RFU LOC730098 (11760151_x_at) / Fold change /veh LOC730098 (11760151_x_at) / RFU OR4N2 (11742367_at) / Fold change /veh OR4N2 (11742367_at) / RFU PRRT2 (11749266_a_at) / Fold change /veh PRRT2 (11749266_a_at) / RFU SNX32 (11753110_a_at) / Fold change /veh SNX32 (11753110_a_at) / RFU CDHR5 (11726645_a_at) / Fold change /veh CDHR5 (11726645_a_at) / RFU RCAN1 (11760418_a_at) / Fold change /veh RCAN1 (11760418_a_at) / RFU FAM167A (11723789_a_at) / Fold change /veh FAM167A (11723789_a_at) / RFU FAM26E (11764081_at) / Fold change /veh FAM26E (11764081_at) / RFU ISYNA1 (11749810_s_at) / Fold change /veh ISYNA1 (11749810_s_at) / RFU ACY1 (11761880_at) / Fold change /veh ACY1 (11761880_at) / RFU 11764098_at / Fold change /veh 11764098_at / RFU SAMD14 (11745864_x_at) / Fold change /veh SAMD14 (11745864_x_at) / RFU NPB (11741838_a_at) / Fold change /veh NPB (11741838_a_at) / RFU TMPRSS6 (11731388_a_at) / Fold change /veh TMPRSS6 (11731388_a_at) / RFU KRTAP10-2 (11738614_at) / Fold change /veh KRTAP10-2 (11738614_at) / RFU ARHGAP8 /// PRR5-ARHGAP8 (11727945_x_at) / Fold change /veh ARHGAP8 /// PRR5-ARHGAP8 (11727945_x_at) / RFU KRTAP5-7 /// NADSYN1 (11734609_at) / Fold change /veh KRTAP5-7 /// NADSYN1 (11734609_at) / RFU RASL12 (11751679_a_at) / Fold change /veh RASL12 (11751679_a_at) / RFU CDKN2B (11736163_a_at) / Fold change /veh CDKN2B (11736163_a_at) / RFU PRF1 (11729649_at) / Fold change /veh PRF1 (11729649_at) / RFU, ZNF638 /// ZNF638-IT1 / Fold change vs veh, ZNF638 /// ZNF638-IT1 / RFU, PANK3 / Fold change vs veh, PANK3 / RFU, SH3YL1 / Fold change vs veh, SH3YL1 / RFU, ZEB2 / Fold change vs veh, ZEB2 / RFU, NRIP1 / Fold change vs veh, NRIP1 / RFU, PTTG1IP / Fold change vs veh, PTTG1IP / RFU, CAPN2 / Fold change vs veh, CAPN2 / RFU, MED14 / Fold change vs veh, MED14 / RFU, SNORA58 / Fold change vs veh, SNORA58 / RFU, C1orf63 / Fold change vs veh, C1orf63 / RFU, LRRFIP1 / Fold change vs veh, LRRFIP1 / RFU, NDUFAF7 / Fold change vs veh, NDUFAF7 / RFU, SLC12A2 / Fold change vs veh, SLC12A2 / RFU, IBTK / Fold change vs veh, IBTK / RFU, ESF1 / Fold change vs veh, ESF1 / Fold change vs veh, TMEM50B / RFU, TAOK1 / Fold change vs veh, TAOK1 / RFU, ACBD3 / Fold change vs veh, ACBD3 / RFU, TMA16 / Fold change vs veh, TMA16 / RFU, RWDD3 / Fold change vs veh, RWDD3 / RFU, BCAT1 / Fold change vs veh, BCAT1 / RFU, EDEM3 / Fold change vs veh, EDEM3 / RFU, TMEM33 / Fold change vs veh, TMEM33 / RFU, WDR75 / Fold change vs veh, WDR75 / RFU, AHCTF1 / Fold change vs veh, AHCTF1 / RFU, TFRC / Fold change vs veh, TFRC / RFU, ZDHHC17 / Fold change vs veh, ZDHHC17 / RFU, NOM1 / Fold change vs veh, NOM1 / RFU, ARL8B / Fold change vs veh, ARL8B / RFU, ZBTB11 / Fold change vs veh, ZBTB11 / RFU, TAMM41 / Fold change vs veh, TAMM41 / RFU, KIAA1704 /// LOC100996395 / Fold change vs veh, KIAA1704 /// LOC100996395 / RFU, ING1 / Fold change vs veh, ING1 / RFU, TRMT61B / Fold change vs veh, TRMT61B / RFU, FUBP3 / Fold change vs veh, FUBP3 / RFU, TP53 / Fold change vs veh, TP53 / RFU, TNKS2 / Fold change vs veh, TNKS2 / RFU, ZFP14 / Fold change vs veh, ZFP14 / RFU, ACTR2 / Fold change vs veh, ACTR2 / RFU, PPP3R1 / Fold change vs veh, PPP3R1 / RFU, PIK3R1 / Fold change vs veh, PIK3R1 / RFU, HNRNPA1 / Fold change vs veh, HNRNPA1 / RFU, RNF170 / Fold change vs veh, RNF170 / RFU, ZNF28 / Fold change vs veh, ZNF28 / RFU, RNGTT / Fold change vs veh, RNGTT / RFU, OGT / Fold change vs veh, OGT / RFU, BRD1 / Fold change vs veh, BRD1 / RFU, MARS / Fold change vs veh, MARS / RFU, ZNF655 / Fold change vs veh, ZNF655 / RFU, FAHD1 / Fold change vs veh, FAHD1 / RFU, BDP1 / Fold change vs veh, BDP1 / RFU, LRRCC1 / Fold change vs veh, LRRCC1 / RFU, ARID1A / Fold change vs veh, ARID1A / RFU, ZNF146 / Fold change vs veh, ZNF146 / RFU, ZNF330 / Fold change vs veh, ZNF330 / RFU, GPN3 / Fold change vs veh, GPN3 / RFU, C9orf123 / Fold change vs veh, C9orf123 / RFU, N4BP2L2 / Fold change vs veh, N4BP2L2 / RFU, ARFIP1 / Fold change vs veh, ARFIP1 / RFU, FAM179B / Fold change vs veh, FAM179B / RFU, BCL10 / Fold change vs veh, BCL10 / RFU, UHRF1BP1L / Fold change vs veh, UHRF1BP1L / RFU, BET1 / Fold change vs veh, BET1 / RFU, CNOT2 / Fold change vs veh, CNOT2 / RFU, ZNF268 / Fold change vs veh, ZNF268 / Fold change vs veh, ZNF507 / RFU, DGCR2 / Fold change vs veh, DGCR2 / RFU, WDSUB1 / Fold change vs veh, WDSUB1 / Fold change vs veh, HSP90B1 /// MIR3652 / RFU, ADSS / Fold change vs veh, ADSS / RFU, GK / Fold change vs veh, GK / RFU, ZNF148 / Fold change vs veh, ZNF148 / RFU, TAF9 / Fold change vs veh, TAF9 / RFU, SLC1A5 / Fold change vs veh, SLC1A5 / RFU, SLMO2 / Fold change vs veh, SLMO2 / RFU, ABCC4 / Fold change vs veh, ABCC4 / RFU, LOC101060439 /// RAP1B / Fold change vs veh, LOC101060439 /// RAP1B / RFU, RFX7 / Fold change vs veh, RFX7 / RFU, GTPBP10 / Fold change vs veh, GTPBP10 / RFU, CNEP1R1 / Fold change vs veh, CNEP1R1 / RFU, BIVM-ERCC5 /// ERCC5 / Fold change vs veh, BIVM-ERCC5 /// ERCC5 / RFU, ILF3 / Fold change vs veh, ILF3 / RFU 11762660_at / Fold change /veh 11762660_at / RFU VCAN (11757783_s_at) / Fold change /veh VCAN (11757783_s_at) / RFU DDX43 (11728927_at) / Fold change /veh DDX43 (11728927_at) / RFU KRT8 (11758188_x_at) / Fold change /veh KRT8 (11758188_x_at) / RFU NKD1 (11759106_at) / Fold change /veh NKD1 (11759106_at) / RFU SRD5A1 (11742802_a_at) / Fold change /veh SRD5A1 (11742802_a_at) / RFU TPSAB1 /// TPSB2 (11721975_s_at) / Fold change /veh TPSAB1 /// TPSB2 (11721975_s_at) / RFU GSTM3 (11746129_a_at) / Fold change /veh GSTM3 (11746129_a_at) / RFU IL23R (11737362_x_at) / Fold change /veh IL23R (11737362_x_at) / RFU TMEM51 (11727254_a_at) / Fold change /veh TMEM51 (11727254_a_at) / RFU PIWIL2 (11732686_x_at) / Fold change /veh PIWIL2 (11732686_x_at) / RFU ORM1 (11744905_x_at) / Fold change /veh ORM1 (11744905_x_at) / RFU CCDC152 (11743942_at) / Fold change /veh CCDC152 (11743942_at) / RFU ECM1 (11717891_a_at) / Fold change /veh ECM1 (11717891_a_at) / RFU IL23R (11748794_a_at) / Fold change /veh IL23R (11748794_a_at) / RFU TNFAIP8L3 (11732012_x_at) / Fold change /veh TNFAIP8L3 (11732012_x_at) / RFU MBOAT4 (11741988_at) / Fold change /veh MBOAT4 (11741988_at) / RFU 11764193_at / Fold change /veh 11764193_at / RFU TMEM53 (11763286_at) / Fold change /veh TMEM53 (11763286_at) / RFU MAGEB2 (11727129_at) / Fold change /veh MAGEB2 (11727129_at) / RFU TMEM200A (11744735_a_at) / Fold change /veh TMEM200A (11744735_a_at) / RFU CCDC152 (11751479_a_at) / Fold change /veh CCDC152 (11751479_a_at) / RFU FAM211A (11726209_a_at) / Fold change /veh FAM211A (11726209_a_at) / RFU RGS16 (11746705_a_at) / Fold change /veh RGS16 (11746705_a_at) / RFU VCAN (11755009_s_at) / Fold change /veh VCAN (11755009_s_at) / RFU RHOB (11743442_s_at) / Fold change /veh RHOB (11743442_s_at) / RFU RGS16 (11720943_a_at) / Fold change /veh RGS16 (11720943_a_at) / RFU RGS16 (11720944_at) / Fold change /veh RGS16 (11720944_at) / RFU, VPS4B / Fold change vs veh, VPS4B / RFU, CREB1 / Fold change vs veh, CREB1 / RFU, DNAJC13 / Fold change vs veh, DNAJC13 / RFU, GNAQ / Fold change vs veh, GNAQ / RFU, CDK5R1 / Fold change vs veh, CDK5R1 / RFU, ZRANB3 / Fold change vs veh, ZRANB3 / RFU, CUL4A / Fold change vs veh, CUL4A / RFU, CCNY / Fold change vs veh, CCNY / RFU, UFL1 / Fold change vs veh, UFL1 / RFU, COG3 / Fold change vs veh, COG3 / RFU, DIAPH2 / Fold change vs veh, DIAPH2 / RFU, SKA2 / Fold change vs veh, SKA2 / RFU, AFF3 / Fold change vs veh, AFF3 / RFU, LMF1 / Fold change vs veh, LMF1 / RFU, IPO11 / Fold change vs veh, IPO11 / RFU, DFFB / Fold change vs veh, DFFB / RFU, FOXP1 / Fold change vs veh, FOXP1 / RFU, CARD8 / Fold change vs veh, CARD8 / RFU, STRN3 / Fold change vs veh, STRN3 / RFU, ADK / Fold change vs veh, ADK / RFU, RASSF2 / Fold change vs veh, RASSF2 / RFU, WIPF1 / Fold change vs veh, WIPF1 / RFU, LARP1B / Fold change vs veh, LARP1B / RFU, RASA1 / Fold change vs veh, RASA1 / RFU, RB1 / Fold change vs veh, RB1 / RFU, PPFIA1 / Fold change vs veh, PPFIA1 / RFU, MAT2A / Fold change vs veh, MAT2A / RFU, CCT5 / Fold change vs veh, CCT5 / RFU, WDR92 / Fold change vs veh, WDR92 / RFU, CUX1 / Fold change vs veh, CUX1 / RFU, TTC7A / Fold change vs veh, TTC7A / RFU, TMEM135 / Fold change vs veh, TMEM135 / RFU, DEPTOR / Fold change vs veh, DEPTOR / RFU, CPM / Fold change vs veh, CPM / RFU, DNAJB6 / Fold change vs veh, DNAJB6 / RFU, CACNA2D3 / Fold change vs veh, CACNA2D3 / RFU, DTX4 / Fold change vs veh, DTX4 / RFU, TFCP2 / Fold change vs veh, TFCP2 / RFU, GMCL1 /// GMCL1P1 / Fold change vs veh, GMCL1 /// GMCL1P1 / RFU, AEBP2 / Fold change vs veh, AEBP2 / RFU, SNHG1 /// SNORD22 /// SNORD25 /// SNORD26 /// SNORD27 /// SNORD28 /// SNORD29 /// SNORD31 / Fold change vs veh, SNHG1 /// SNORD22 /// SNORD25 /// SNORD26 /// SNORD27 /// SNORD28 /// SNORD29 /// SNORD31 / Fold change (Aza/veh), C12orf56 (ProbeSet 11735607_a_at) / Fold change (ACY-1035/veh), C12orf56 (ProbeSet 11735607_a_at) / Fold change (Aza/veh), FGFR1OP (ProbeSet 11751329_s_at) / Fold change (ACY-1035/veh), FGFR1OP (ProbeSet 11751329_s_at) / Fold change (Aza/veh), VPS36 (ProbeSet 11739960_a_at) / Fold change (ACY-1035/veh), VPS36 (ProbeSet 11739960_a_at) / RFU SYPL1 (11715823_x_at) / Fold change /veh SYPL1 (11715823_x_at) / RFU IGFBP7 (11715501_s_at) / Fold change /veh IGFBP7 (11715501_s_at) / RFU REEP3 (11722064_at) / Fold change /veh REEP3 (11722064_at) / RFU IGLL1 (11728026_x_at) / Fold change /veh IGLL1 (11728026_x_at): dose or concentration left out as unconfirmed. To be noted: MV-4-11 cells, 48 hours.

As for `Nc1ncn([C@@H]2O[C@H](CO)[C@@H](O)[C@H]2O)c(=O)n1` [azacitidine], the “Fold change /veh FAM174B (11720279_a_at)” value is recorded as 1.12.
